Data taken from patent US20250059231A1, “Protease inhibitors” (priority 2021, published 2025).
pIC50: −log10 of the molar value. Where a SMILES comes first, the peptide text is derived from it. The star is where a group is joined. Arachidoyl = CCCCCCCCCCCCCCCCCCCC(=O)*

The compounds below were run against T1, DENV protease (Dengue virus type 2, UniProt P29990) (assay: biochemical). Conditions: at 1 μM; read-out: inhibition of DENV.
T1 construct: The virus-encoded dengue protease comprises the amino-terminal 180 amino acids of NS3 (NS3pro) of the polyprotein
Procedure, shortened: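 DENV protease (100 nM) was pre-incubated 15 min with inhibitors in 50 mM Tris-HCl pH 9.0, 10% ethylene glycol, 0.0016% Brij 58. FRET substrate (50 μM final) started the reaction, monitored 15 min as RFU/s slope. IC50 came from triplicate means versus concentration.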

T1 sequence (P29990 1398-1437): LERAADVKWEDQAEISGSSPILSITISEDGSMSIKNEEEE
T1 sequence (P29990 1476-1653): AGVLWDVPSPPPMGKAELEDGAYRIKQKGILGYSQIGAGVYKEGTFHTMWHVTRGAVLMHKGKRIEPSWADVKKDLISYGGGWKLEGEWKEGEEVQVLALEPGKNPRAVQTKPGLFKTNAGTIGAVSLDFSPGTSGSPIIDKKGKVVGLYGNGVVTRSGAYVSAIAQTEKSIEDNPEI

Compound	inhibition at 1 µM [%]
CCCCCCCCCCCCCCCCCCCC(=O)N[C@@H](CCCCN)C(=O)N1CCC[C@H]1C(=O)N[C@@H](C)C(=O)N[C@@H](CCCCN)C(N)=O [compound 125] (Arachidoyl-KPAK-NH2)	≥ 20

Same assay, conditions: at 50 μM; read-out: inhibition of DENV

Compound	inhibition at 50 µM [%]
CCCCCCCCCCCCCCCC(=O)N[C@@H](CCCCN)C(=O)N[C@@H](C)C(=O)N[C@@H](C)C(=O)N[C@H](CCc1ccccc1)C(=O)C(N)=O [compound 5]	≥ 25
CCCCCCCCCCCCCCCC(=O)N[C@@H](CCCCN)C(=O)N1CCC[C@H]1C(=O)N[C@@H](C)C(=O)N[C@@H](CCc1ccccc1)C(=O)C(N)=O [compound 6]	≥ 25
CCCCCCCCCCCCCCCC(=O)N[C@H](C)C(=O)N1C[C@H](Oc2ccncc2)C[C@H]1C(=O)N[C@H](C)C(=O)N[C@H](CCCCN)C(N)=O [compound 8]	≥ 25
CCCCCCCCCCCCCCCCCCCC(=O)N[C@@H](CCCCN)C(=O)N1CCC[C@H]1C(=O)N[C@@H](C)C(=O)N[C@@H](CCCCN)C(N)=O [compound 125] (Arachidoyl-KPAK-NH2)	≥ 25

Each compound was assayed against T2, WNV protease (West Nile virus, UniProt P06935) (assay: WNV protease assay (analogous procedure)). Conditions: at 50 μM.
T2 construct: a trypsin-like serine protease domain in the N-terminal region of the flaviviral NS3 proteins
Format: biochemical
Description: (§1) By catalytic activity of the protease, the cleaved substrate results in increased fluorescence that can be monitored using a BMG Labtech Fluostar OPTIMA Microtiter fluorescence plate reader (excitation wavelength of 320 nm and a monitored emission wavelength of 405 nm). Dilutions were made starting from 10 mM stock solutions in DMSO and final concentrations were measured in triplicates. The inhibitors were preincubated for 15 min with DENV protease (100 nM) in the assay buffer (50 mM Tris-HCl pH 9.0, ethylene glycol (10% v/v), and 0.0016% Brij 58). The enzymatic reaction was initiated by the addition of the FRET substrate (final concentration 50 μM) to obtain a final assay volume of 100 μL per well. The enzymatic activity was monitored for 15 min and determined as a slope of relative fluorescence units per second (RFU/s) for each concentration. The mean of the triplicates were plotted against the corresponding concentration in CDDVault to determine the IC50-values. Analogous procedures were used to determine the inhibitory potency on WNV (Kühl et al., J. Med. Chem. 2020, 63 (15): 8179-8197) and ZIKA protease (Nitsche et al., ACS Med. Chem. Lett. 2019 Feb. 14; 10 (2): 168-174). For selectivity screening of active candidates, similar biochemical assays with human serine proteases trypsin (Weigel et al., J. Med. Chem. 2015, 58 (19), 7719-7733.) and/or thrombin (Nitsche et al., J. Med. Chem. 2013, 56 (21), 8389-8403) were used.

T2 sequence (P06935 1424-1463): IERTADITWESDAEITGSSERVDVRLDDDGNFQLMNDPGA
T2 sequence (P06935 1502-1679): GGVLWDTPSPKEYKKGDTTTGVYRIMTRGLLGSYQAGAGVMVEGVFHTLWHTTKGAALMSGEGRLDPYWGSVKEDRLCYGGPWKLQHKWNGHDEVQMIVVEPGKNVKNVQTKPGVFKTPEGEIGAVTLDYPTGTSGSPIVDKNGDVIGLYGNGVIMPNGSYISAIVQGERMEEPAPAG

Compound	inhibition at 50 µM [%]
CCCCCCCCCCCCCCCC(=O)N[C@@H](CCCCN)C(=O)N[C@@H](C)C(=O)N[C@@H](C)C(=O)N[C@H](CCc1ccccc1)C(=O)C(N)=O [compound 5]	≥ 25
CCCCCCCCCCCCCCCC(=O)N[C@@H](CCCCN)C(=O)N1CCC[C@H]1C(=O)N[C@@H](C)C(=O)N[C@@H](CCc1ccccc1)C(=O)C(N)=O [compound 6]	≥ 25
CCCCCCCCCCCCCCCC(=O)N[C@H](C)C(=O)N1C[C@H](Oc2ccncc2)C[C@H]1C(=O)N[C@H](C)C(=O)N[C@H](CCCCN)C(N)=O [compound 8]	≥ 25
CCCCCCCCCCCCCCCCCCCC(=O)N[C@@H](CCCCN)C(=O)N1CCC[C@H]1C(=O)N[C@@H](C)C(=O)N[C@@H](CCCCN)C(N)=O [compound 125] (Arachidoyl-KPAK-NH2)	≥ 25

What follows are compounds tested against T3, ZIKA protease (Zika virus, UniProt Q32ZE1) (assay: biochemical). Conditions: not given.
T3 construct: a trypsin-like serine protease domain in the N-terminal region of the flaviviral NS3 proteins
Description: as §1

T3 sequence (Q32ZE1 1499-1676): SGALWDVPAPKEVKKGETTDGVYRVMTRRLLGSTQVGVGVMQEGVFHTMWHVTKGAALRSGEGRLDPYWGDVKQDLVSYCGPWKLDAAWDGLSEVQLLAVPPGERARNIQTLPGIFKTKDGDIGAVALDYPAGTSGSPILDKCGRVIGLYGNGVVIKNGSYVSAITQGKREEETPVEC
T3 sequence (Q32ZE1 1421-1460): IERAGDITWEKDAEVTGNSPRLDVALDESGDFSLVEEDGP

Compound	pIC50
CCCCCCCCCCCCCCCC(=O)N[C@@H](CCCCN)C(=O)N[C@@H](C)C(=O)N[C@@H](C)C(=O)N[C@H](CCc1ccccc1)C(=O)C(N)=O [compound 5]	≥ 4.60
CCCCCCCCCCCCCCCC(=O)N[C@@H](CCCCN)C(=O)N1CCC[C@H]1C(=O)N[C@@H](C)C(=O)N[C@@H](CCc1ccccc1)C(=O)C(N)=O [compound 6]	≥ 4.60
CCCCCCCCCCCCCCCC(=O)N[C@H](C)C(=O)N1C[C@H](Oc2ccncc2)C[C@H]1C(=O)N[C@H](C)C(=O)N[C@H](CCCCN)C(N)=O [compound 8]	≥ 4.60
CCCCCCCCCCCCCCCCCCCC(=O)N[C@@H](CCCCN)C(=O)N1CCC[C@H]1C(=O)N[C@@H](C)C(=O)N[C@@H](CCCCN)C(N)=O [compound 125] (Arachidoyl-KPAK-NH2)	≥ 4.60

Same assay, conditions: at 1 μM; read-out: inhibition of ZIKV

Compound	inhibition at 1 µM [%]
CCCCCCCCCCCCCCCCCCCC(=O)N[C@@H](CCCCN)C(=O)N1CCC[C@H]1C(=O)N[C@@H](C)C(=O)N[C@@H](CCCCN)C(N)=O [compound 125] (Arachidoyl-KPAK-NH2)	≥ 10

Same assay, conditions: at 50 μM; read-out: inhibition of ZIKV

Compound	inhibition at 50 µM [%]
CCCCCCCCCCCCCCCC(=O)N[C@H](C)C(=O)N1C[C@H](Oc2ccncc2)C[C@H]1C(=O)N[C@H](C)C(=O)N[C@H](CCCCN)C(N)=O [compound 8]	≥ 65
CCCCCCCCCCCCCCCCCCCC(=O)N[C@@H](CCCCN)C(=O)N1CCC[C@H]1C(=O)N[C@@H](C)C(=O)N[C@@H](CCCCN)C(N)=O [compound 125] (Arachidoyl-KPAK-NH2)	≥ 65

Same assay, conditions: read-out: inhibition of ZIKV

Compound	inhibition at 50 µM [%]
CCCCCCCCCCCCCCCC(=O)N[C@@H](CCCCN)C(=O)N[C@@H](C)C(=O)N[C@@H](C)C(=O)N[C@H](CCc1ccccc1)C(=O)C(N)=O [compound 5]	≥ 65
CCCCCCCCCCCCCCCC(=O)N[C@@H](CCCCN)C(=O)N1CCC[C@H]1C(=O)N[C@@H](C)C(=O)N[C@@H](CCc1ccccc1)C(=O)C(N)=O [compound 6]	≥ 65

These compounds were tested against human Thrombin (Homo sapiens, UniProt P00734) (assay: Selectivity screening, human serine protease thrombin). Conditions: at 5 μM; read-out: inhibition of human Thrombin.
Format: biochemical
Description: as §1

Compound	inhibition at 5 µM [%]
CCCCCCCCCCCCCCCC(=O)N[C@H](C)C(=O)N1C[C@H](Oc2ccncc2)C[C@H]1C(=O)N[C@H](C)C(=O)N[C@H](CCCCN)C(N)=O [compound 8]	< 5
CCCCCCCCCCCCCCCCCCCC(=O)N[C@@H](CCCCN)C(=O)N1CCC[C@H]1C(=O)N[C@@H](C)C(=O)N[C@@H](CCCCN)C(N)=O [compound 125] (Arachidoyl-KPAK-NH2)	< 5

Same assay, conditions: read-out: inhibition of human Thrombin

Compound	inhibition at 5 µM [%]
CCCCCCCCCCCCCCCC(=O)N[C@@H](CCCCN)C(=O)N[C@@H](C)C(=O)N[C@@H](C)C(=O)N[C@H](CCc1ccccc1)C(=O)C(N)=O [compound 5]	< 5
CCCCCCCCCCCCCCCC(=O)N[C@@H](CCCCN)C(=O)N1CCC[C@H]1C(=O)N[C@@H](C)C(=O)N[C@@H](CCc1ccccc1)C(=O)C(N)=O [compound 6]	< 5

Each compound was assayed against human Trypsin (Homo sapiens, UniProt P07477) (assay: Selectivity screening, human serine protease trypsin). Conditions: at 5 μM; read-out: inhibition of human Trypsin.
Format: biochemical
Description: as §1

Compound	inhibition at 5 µM [%]
CCCCCCCCCCCCCCCC(=O)N[C@H](C)C(=O)N1C[C@H](Oc2ccncc2)C[C@H]1C(=O)N[C@H](C)C(=O)N[C@H](CCCCN)C(N)=O [compound 8]	< 10
CCCCCCCCCCCCCCCCCCCC(=O)N[C@@H](CCCCN)C(=O)N1CCC[C@H]1C(=O)N[C@@H](C)C(=O)N[C@@H](CCCCN)C(N)=O [compound 125] (Arachidoyl-KPAK-NH2)	< 10

Same assay, conditions: at 25 μM; read-out: inhibition of human Trypsin

Compound	inhibition at 25 µM [%]
CCCCCCCCCCCCCCCC(=O)N[C@H](C)C(=O)N1C[C@H](Oc2ccncc2)C[C@H]1C(=O)N[C@H](C)C(=O)N[C@H](CCCCN)C(N)=O [compound 8]	< 20
CCCCCCCCCCCCCCCCCCCC(=O)N[C@@H](CCCCN)C(=O)N1CCC[C@H]1C(=O)N[C@@H](C)C(=O)N[C@@H](CCCCN)C(N)=O [compound 125] (Arachidoyl-KPAK-NH2)	< 20

Same assay, conditions: read-out: inhibition of human Trypsin

Compound	inhibition at 5 µM [%]	inhibition at 25 µM [%]
CCCCCCCCCCCCCCCC(=O)N[C@@H](CCCCN)C(=O)N[C@@H](C)C(=O)N[C@@H](C)C(=O)N[C@H](CCc1ccccc1)C(=O)C(N)=O [compound 5]	< 10	< 20
CCCCCCCCCCCCCCCC(=O)N[C@@H](CCCCN)C(=O)N1CCC[C@H]1C(=O)N[C@@H](C)C(=O)N[C@@H](CCc1ccccc1)C(=O)C(N)=O [compound 6]	< 10	< 20

Each compound was assayed against T2, WNV protease (assay: WNV protease assay (analogous procedure)). Conditions: read-out: IC50 for WNNV.
Format: biochemical

Compound	pIC50
CCCCCCCCCCCCCCCC(=O)N[C@@H](CCCCN)C(=O)N[C@@H](C)C(=O)N[C@@H](C)C(=O)N[C@H](CCc1ccccc1)C(=O)C(N)=O [compound 5]	≥ 4.40
CCCCCCCCCCCCCCCC(=O)N[C@@H](CCCCN)C(=O)N1CCC[C@H]1C(=O)N[C@@H](C)C(=O)N[C@@H](CCc1ccccc1)C(=O)C(N)=O [compound 6]	≥ 4.40
CCCCCCCCCCCCCCCC(=O)N[C@H](C)C(=O)N1C[C@H](Oc2ccncc2)C[C@H]1C(=O)N[C@H](C)C(=O)N[C@H](CCCCN)C(N)=O [compound 8]	≥ 4.40
CCCCCCCCCCCCCCCCCCCC(=O)N[C@@H](CCCCN)C(=O)N1CCC[C@H]1C(=O)N[C@@H](C)C(=O)N[C@@H](CCCCN)C(N)=O [compound 125] (Arachidoyl-KPAK-NH2)	≥ 4.40
